Results: patent US12162857B2, “Antiviral compounds” (priority 2022, dated 2024)
pEC50: −log10 of the molar value.

Each compound was assayed on HMPV A2 TN/94-49 (assay: HMPV antiviral assay: LLC-MK2 cells, ATP-Lite readout). Settings: LLC-MK2, 168 h, MOI 0.005, 7 days incubation.
Type: cell-based
Experimental: In vitro HMPV antiviral activity was evaluated using the clinical isolate A2 strain TN 94-49 and LLC-MK2 cells (ATCC #CCL-7), an immortalized kidney epithelial cell line from Macaca mulatta. Compounds were resuspended in dimethyl sulfoxide (DMSO) at 10 mM, serially diluted and added to a 384-well source plate. Subsequently, the compounds were diluted and transferred onto 384-well assay plates using the Echo-650 automated liquid handling system (Beckman Coulter, Indiana). The test compounds were assessed in duplicate at a top concentration of 2 μM followed by 2.5-fold serial dilutions to give a total of 10 concentration points. DMSO control wells were also included on the assay plates and were either infected or not, acting as positive and negative controls. A2 TN 94-49 virus infections were performed in-suspension with LLC-MK2 cells. The cells were washed twice with PBS and removed from the cell-culture flask with 0.25% trypsin-EDTA (Thermo Fisher Scientific, MA). The trypsin-EDTA was inactivated by resuspending in 2% fetal bovine serum (FBS) and OptiMEM (ThermoFisher Scientific, MA) containing 1% penicillin-streptomycin. Cells were pelleted by centrifuging for 5 minutes at 800 rpm, the supernatant was removed, and cells were re-suspended and washed in PBS plus 100 μg/mL CaCl2). This step was performed twice. Cells were then re-suspended in serum-free (SF)-OptiMEM containing 4 μg/mL TPCK-Trypsin (Sigma Aldrich, MO), 1% penicillin-streptomycin (ThermoFisher Scientific, MA) and 100 μg/mL CaCl2). Cells were counted and seeded at a density of 5,000 cells/well, 12.5 μL/well. Virus infections were done at a multiplicity of infection (MOI) of 0.005 with 12.5 μL added per well. Virus infections were performed in infection media which contained SF-OptiMEM, 100 μg/mL CaCl2) and 1% penicillin-streptomycin. HMPV viral stocks are suspended in infection media+5% glycerol, thus an equal volume of infection media+5% glycerol was added to uninfected wells to equalize the final % glycerol across all wells of the assay plate. The final concentration of TPCK-trypsin was 2 μg/mL. The assay plates were incubated at 37° C., 5% CO2 for 7 days. After 7 days incubation, 12.5 μL of ATP-Lite (PerkinElmer, MA) was added to each well and the raw luminescence values were determined using the Envision 2104 (Perkin Elmer, MA). The average of the raw luminescence values for the cells and virus only positive control wells was subtracted from all conditions tested and the percent cell health was determined by dividing these values by the average of the cells only negative control wells. EC50 values were then calculated by non-linear regression using a four-parameter curve logistic equation. The curve fit model employed was XLFit Dose Response One Site Model 200: y=(A+(B/(1+((x/C)^D)))), where A is the minimum y value, B is the maximum y value, C is the log EC50 value, and D is the slope factor. […] EC50 ranges are as follows: A<1 μM; B>1 μM.

| SMILES | pEC50 |
| --- | --- |
| COc1cc(C(=O)NC[C@@](O)(c2ccccc2)c2cc(C(C)(C)O)c(Cl)c(-c3cccc(Cl)c3Cl)n2)cc2sc(C)nc12 [Example 139] | > 6.00 |
| COc1cc(C(=O)NC[C@@](O)(c2ccccc2)c2nc(-c3cc(Cl)c(F)cc3F)c(F)c(C(C)(C)O)c2F)cc2cc(C3CC3)nn12 [Example 129] | > 6.00 |
| COc1cc(C(=O)NC[C@@](O)(c2ccccc2)c2cc(C(C)(C)O)cc(-c3cccc(Cl)c3Cl)n2)cc2cn(C(F)F)nc12 [Example 150] | > 6.00 |
| COc1cc(C(=O)NC[C@](O)(c2cc(C3(O)COC3)c(F)c(-c3cc(Cl)c(F)cc3F)n2)C2CC2)cc2cn(C(F)F)nc12 [Example 169] | < 6.00 |
| COc1cc(C(=O)NC[C@@](O)(c2ccccc2)c2cc(C(C)(C)O)c(Cl)c(-c3ccc4c(c3Cl)OC(F)(F)O4)n2)cc2cn(C(F)F)nc12 [Example 138] | > 6.00 |
| CC(C)(O)c1cc([C@@](O)(CNC(=O)c2cc(Cl)c3nn(C4CC4)cc3c2)c2cccc(F)c2)nc(-c2ccc3c(c2Cl)OC(F)(F)O3)c1F [Example 110] | < 6.00 |
| COc1c(C(C)(C)O)cc([C@@](O)(CNC(=O)c2cc(OC)c3nn(C4CC4)cc3c2)C2CC2)nc1-c1cc(F)c(F)cc1F (single isomer, unassigned) [Example 165] | < 6.00 |
| CC(C)(O)c1cc([C@@](O)(CNC(=O)c2cc(OC3CC3)c3nn(C4CC4)cc3c2)C2CC2)nc(-c2cc(Cl)c(F)cc2F)c1F [Example 55] | > 6.00 |
| COc1cc(C(=O)NC[C@@](O)(c2ccccc2)c2cc(C(C)(C)O)c(F)c(-c3ccc(F)c(Cl)c3Cl)n2)cc2cc(C3CC3)nn12 [Example 69] | > 6.00 |
| CC(C)(O)c1cc([C@@](O)(CNC(=O)c2cc(Cl)c3nn(C4CC4)cc3c2)c2ccccc2)nc(-c2ccc(F)c(Cl)c2Cl)c1F [Example 68] | > 6.00 |
| COc1cc(C(=O)NC[C@@](O)(c2ccccc2)c2nc(-c3cc(Cl)c(F)cc3F)c(F)c(C(C)(C)O)c2F)cc2sc(C)nc12 [Example 130] | > 6.00 |
| [2H]C([2H])([2H])C(O)(c1cc([C@@](O)(CNC(=O)c2cc(OC)c3nn(C(F)F)cc3c2)C2CC2)nc(-c2cc(Cl)c(F)cc2F)c1F)C([2H])([2H])[2H] [Example 188] | > 6.00 |
| COc1cc(C(=O)NC[C@@](O)(c2ccccc2)c2cc(C(C)(C)O)c(F)c(-c3cccc(Cl)c3Cl)n2)cc2cc(C3CC3)nn12 [Example 81] | > 6.00 |
| COc1cc(C(=O)NC[C@@](O)(c2ccccc2)c2cc(C(C)(C)O)c(F)c(-c3ccc(F)c(Cl)c3F)n2)cc2cn(C(F)F)nc12 [Example 122] | > 6.00 |
| COc1cc(C(=O)NC[C@@](O)(c2cccc(F)c2)c2cc(C(C)(C)O)c(F)c(-c3ccc(F)c(Cl)c3Cl)n2)cc2cc(C3CC3)nn12 [Example 106] | < 6.00 |
| COc1cc(C(=O)NC[C@](O)(c2cc(C(C)(C)O)c(F)c(-c3cc(Cl)c(F)cc3F)n2)c2cccs2)cc2sc(C)nc12 [Example 115] | > 6.00 |
| CC(C)(O)c1cc([C@@](O)(CNC(=O)c2cc(Cl)c3nn(C4CC4)cc3c2)c2ccccc2)nc(-c2ccc3c(c2Cl)OC(F)(F)O3)c1F [Example 75] | < 6.00 |
| COc1cc(C(=O)NC[C@@](O)(c2ccccc2)c2cc(C(C)(C)O)cc(-c3ccc(F)c(Cl)c3Cl)n2)cc2cn(C(F)F)nc12 [Example 154] | > 6.00 |
| COc1cc(C(=O)NC[C@@](O)(c2ccccc2)c2cc(C(C)(C)O)cc(-c3ccc4c(c3Cl)OC(F)(F)O4)n2)cc2cn(C3CC3)nc12 [Example 156] | > 6.00 |
| COc1cc(C(=O)NC[C@](O)(c2cc(C3(O)COC3)c(F)c(-c3cc(Cl)c(F)cc3F)n2)C2CC2)cc2cn(C3CC3)nc12 [Example 167] | < 6.00 |
| COc1cc(C(=O)NC[C@](O)(c2cc(C(C)(C)O)c(F)c(-c3ccc(F)c(Cl)c3F)n2)C2CC2)cc2cn(C3CC3)nc12 [Example 119] | > 6.00 |
| COc1cc(C(=O)NC[C@](O)(c2cc(C(C)(C)O)c(F)c(-c3ccc(F)c(Cl)c3F)n2)C2CC2)cc2cn(C(F)F)nc12 [Example 118] | > 6.00 |
| COc1cc(C(=O)NC[C@@](O)(c2ccccc2)c2cc(C(C)(C)O)c(F)c(-c3ccc(F)c(Cl)c3Cl)n2)cc2sc(C)nc12 [Example 71] | > 6.00 |
| COc1cc(C(=O)NC[C@](O)(c2cc(C(C)(C)O)c(F)c(-c3cc(Cl)c(F)cc3F)n2)C2CC2)cc2cc(C3CC3)nn12 [Example 56] | > 6.00 |
| COc1cc(C(=O)NC[C@@](O)(c2ccccc2)c2cc(C(C)(C)O)c(Cl)c(-c3ccc4c(c3Cl)OC(F)(F)O4)n2)cc2sc(C)nc12 [Example 135] | < 6.00 |
| COc1cc(C(=O)NC[C@@](O)(c2ccccc2)c2cc(C(C)(C)O)c(F)c(-c3ccc(F)c(Cl)c3F)n2)cc2cn(C3(F)CC3)nc12 [Example 124] | > 6.00 |

The next lines start with the values.

| pEC50 | SMILES |
| --- | --- |
| < 6.00 | COc1cc(C(=O)NC[C@@](O)(c2ccccc2)c2cc(C(=O)Nc3ncc[nH]3)c(F)c(-c3cc(Cl)c(F)cc3F)n2)cc2cn(C3CC3)nc12 [Example 190] |
| > 6.00 | CCC(O)(CC)c1cc([C@@](O)(CNC(=O)c2cc(OC)c3nn(C4CC4)cc3c2)c2ccccc2)nc(-c2cc(Cl)c(F)cc2F)c1F [Example 116] |
| < 6.00 | COc1cc(C(=O)NC[C@@](O)(c2ccccc2)c2cc(C(C)(C)O)c(F)c(-c3cc(F)ccc3F)n2)cc2cn(C3CC3)nc12 [Example 83] |
| < 6.00 | COc1cc(C(=O)NC[C@@](O)(c2ccccc2)c2cc(N3C(=O)CC[C@H]3C(N)=O)cc(-c3cc(Cl)c(F)cc3F)n2)cc2cn(C3CC3)nc12 [Example 196] |
| < 6.00 | COc1cc(C(=O)NC[C@@](O)(c2ccccc2)c2cc(C(=O)Nc3ncco3)c(F)c(-c3cc(Cl)c(F)cc3F)n2)cc2cn(C3CC3)nc12 [Example 191] |
| > 6.00 | COc1cc(C(=O)NC[C@@](O)(c2cccc(F)c2)c2cc(C(C)(C)O)c(F)c(-c3cc(F)c(F)cc3F)n2)cc2cn(C3CC3)nc12 [Example 96] |
| < 6.00 | COc1cc(C(=O)NC[C@@](O)(c2ccccc2)c2cc(C(=O)NCC(C)(C)O)c(F)c(-c3cc(Cl)c(F)cc3F)n2)cc2cn(C3CC3)nc12 [Example 193] |
| < 6.00 | COc1cc(C(=O)NC[C@@](O)(c2ccccc2)c2cc(C(C)(C)F)c(F)c(-c3cc(Cl)c(F)cc3F)n2)cc2cn(C(F)F)nc12 [Example 182] |
| < 6.00 | COc1cc(C(=O)NC[C@@](O)(c2ccccc2)c2cc(N3CC[C@H](O)C3)cc(-c3cc(Cl)c(F)cc3F)n2)cc2cn(C3CC3)nc12 [Example 198] |
| < 6.00 | COc1cc(C(=O)NC[C@@](O)(c2ccccc2)c2cc(C(C)(C)O)c(Cl)c(-c3cc(Cl)c(F)cc3F)n2)cc2cn(C(F)F)nc12 [Example 134] |
| < 6.00 | CNC(=O)c1cc([C@@](O)(CNC(=O)c2cc(OC)c3nn(C4CC4)cc3c2)c2ccccc2)nc(-c2cc(Cl)c(F)cc2F)c1F [Example 192] |
| > 6.00 | CC(C)(C(N)=O)c1cc([C@@](O)(CNC(=O)c2cc(Cl)c3nn(C4CC4)cc3c2)c2ccccc2)nc(-c2cc(Cl)c(F)cc2F)c1F [Example 162] |
| < 6.00 | COc1cc(C(=O)NC[C@@](O)(c2ccccc2)c2cc(C(C)(C)F)c(F)c(-c3cc(Cl)c(F)cc3F)n2)cc2cc(C3CC3)nn12 [Example 181] |
| > 6.00 | COc1cc(C(=O)NC[C@@](O)(c2cccc(F)c2)c2cc(C(C)(C)O)c(F)c(-c3cccc(Cl)c3Cl)n2)cc2cn(C3CC3)nc12 [Example 98] |
